# Assay results taken from patent US11860166B2 (KOREA INSTITUTE OF SCIENCE AND TECHNOLOGY, priority 2019, dated 2024).
# System: dopamine receptor D1
# Conditions: co-imaging, quinpirole first, then SKF38393, FIG. 5A
# Experimental: To minimize a photobleaching phenomenon, the live fluorescence microscope was set. When stimulated with light at a wavelength of 560 nm in the live fluorescence microscope, intensity at a cpRFP fluorescence wavelength of 610 nm was measured.
# To induce fluorescence intensity suitable for experiments, 50 msec exposure and ND16 intensity were maintained. The fluorescence cycle was performed for total 10 minutes by measuring cpRFP images for 1 minute using the fluorescence microscope.
# The saved images were analyzed using an NIS program (Nikon). cpRFP fluorescence intensity of the entire single cells in the regions of interest (ROI) was analyzed in the NIS program.
compound,measurement,value
Oc1cc2c(cc1O)C(c1ccccc1)CNCC2 (stereo not shown) [SKF38393],fluorescence of red biosensor DRD1 Red 1.3 on ligand treatment,increase in fluorescence by selective response
